Laboratory results as given in US10398672B2, “Methods and compositions for targeting cancer stem cells” (Whitehead Institute for Biomedical Research, priority 2014, dated 2019).
Like-named read-outs stand apart in the source and are kept apart here.

Tests used:
[1] = tested on: NAMEC cells; assay: Treatment of NAMEC cells with cAMP analogs (PKA versus EPAC), morphology; assay type: cell-based, human; conditions: treatment for 12 days, data not shown
[2] = tested on: HMLE cells; assay: Dose response to chemotherapeutic drugs, HMLE cells; assay type: cell-based, human; conditions: dose response curves FIGS. 8A and 8B
[3] = tested on: NAMEC cells; assay type: cell-based, human; conditions: for susceptibility to inhibition by the drug, in contrast to untreated NAMEC cells: NAMEC cells treated with cholera toxin, FIGS. 8A and 8B
[4] = tested on: NAMEC cells; assay type: cell-based, human
[5] = tested on: NAMEC cells; assay type: cell-based, human; remark: listed apart in the source
[6] = tested on: NAMEC cells; assay type: cell-based, human; remark: listed apart in the source
[7] = tested on: NAMEC cells; assay type: cell-based, human; remark: listed apart in the source
[8] = tested on: E-cadherin/CDH1 promoter; assay type: cell-based, human
[9] = tested on: NAMEC cells; assay type: cell-based, human; remark: listed apart in the source
[10] = 5 mg/kg, previously tested in vivo in mice; cited from earlier work

Nc1ncnc2c1nc(Br)n2[C@@H]1O[C@@H]2COP(=O)(O)O[C@H]2[C@H]1O [8-Br-cAMP]
epithelial morphologies displayed by NAMEC cells [1]: displayed epithelial morphologies

CC(=O)O[C@H]1C(=O)[C@@]2(C)[C@H]([C@H](OC(=O)c3ccccc3)[C@]3(O)C[C@H](OC(=O)[C@H](O)[C@@H](NC(=O)c4ccccc4)c4ccccc4)C(C)=C1C3(C)C)[C@]1(OC(C)=O)CO[C@@H]1C[C@@H]2O [paclitaxel]
susceptibility to inhibition by the drug [2]: susceptible | susceptibility to inhibition by the drug [3]: highly resistant | susceptibility to inhibition by the drug, in contrast to untreated NAMEC cells [3]: more susceptible

cholera toxin
cell morphology after treatment [4]: cobblestone-like epithelial morphology | cells expressing the SC-like CD44hiCD24lo marker profile reverted to the non-SC CD44loCD24hi profile [4]: 95% | junctional E-cadherin by fluorescent microscopy [4]: expressed junctional E-cadherin | mesenchymal marker fibronectin by fluorescence microscopy [4]: loss of the mesenchymal marker, fibronectin | E-cadherin expression compared to untreated NAMEC cells [5]: gain of E-cadherin expression | relative expression of mesenchymal markers compared to untreated NAMEC cells [5]: decrease | intracellular cAMP concentration in NAMEC cells [6]: elevated | invasive properties of NAMEC cells [7]: loss | migratory properties of NAMEC cells [7]: loss | ability to induce luciferase expression (validation of the screen) [8]: induce luciferase expression | mammosphere-forming ability [9]: complete loss | susceptibility of NAMEC cells to doxorubicin and paclitaxel after induction of MET [3]: more susceptible

C=C[C@@]1(C)CC(=O)[C@]2(O)[C@@]3(C)[C@@H](O)CCC(C)(C)[C@@H]3[C@H](O)[C@H](OC(C)=O)[C@@]2(C)O1 [forskolin]
toxicities / side-effects in mice [10]: no reported side-effects | cells expressing the SC-like CD44hiCD24lo marker profile reverted to the non-SC CD44loCD24hi profile ([4]; NAMEC cells, 100 μg/ml cholera toxin or 10 μM forskolin over 12 days, flow cytometry): 95% | induce transcription of the E-cadherin reporter compared to the control after normalization to cell number [8]: 40 fold | relative CDH1 Promoter luciferase activity normalized by cells number: differential activity between non-CSCs and CSC [8]: around 40 fold

COc1cccc2c1C(=O)c1c(O)c3c(c(O)c1C2=O)C[C@@](O)(C(=O)CO)C[C@@H]3O[C@H]1C[C@H](N)[C@H](O)[C@H](C)O1 [doxorubicin]
susceptibility to inhibition by the drug [2]: susceptible | susceptibility to inhibition by the drug [3]: highly resistant | susceptibility to inhibition by the drug, in contrast to untreated NAMEC cells [3]: more susceptible
